Test results: patent US7250397B2, “Antiarrhythmic peptides” (Zealand Pharma A/S, priority 2000, dated 2007)

Experiments:
[1] = system: isolated guinea pig myocytes; experiment: Intercellular conductance Gj (GJIC), double patch clamp of cardiomyocyte pairs; type: cell-based; settings: 10^−8 M
Procedure: Cell preparation: Cells were isolated from guinea pig hearts by perfusion with collagenase according to the Langendorf method. In brief, guinea pigs were heparinised with an intraperitoneal injection of heparin (1000 IU/kg). After 30 minutes the animal was sacrificed by a blow to the neck followed by cutting the spine at the neck. The chest was opened and the aorta cannulated. Then the cannula was fixed to the aorta by a ligature, exised and perfused with Tyrodes solution for a couple of minutes. The Tyrodes solution had the following composition in mM: Na^+ 135.33, K^+ 4, Cl^− 145, PO4^− 0.33, Mg^2+ 1, Ca^2+ 2, Hepes 10, Glucose 10, pH 7.4. All perfusion media were bubled by 100% oxygen. […]. Then the heart was perfused with high K^+ solution with 0.6 mg/ml collagenase, this was done for 10-15 minutes judged from the apperance of the heart. The atria were cut off, the ventricles minced, whereafter the pieces were stirred in the collagenase solution by gently bubbling with 100% oxygen. […]
Where Ip,pulse and Ip,rest represent the current in the passive cell during the pulse and before the pulse respectively, and Up and Ua represent the voltage of the passive and active cell. […] However, the change in Gj value to a standardized intervention like a drug can be analysed by comparing the relative changes in Gj.

[2] = system: phospho-inositol turnover in neonatal rat cardiomyocytes; experiment: Phosphoinositol turnover in rat primary cardiomyocytes; type: cell-based; settings: 100 nM; control conditions
Procedure: Neonatal Wistar rats (1-2 days old) are used. Hank's calcium- and magnesium-free balanced salt solution, buffered with 10 mM HEPES is used for washing during cell separation procedures. The hearts are excised, the ventricles isolated and the tissue cut into small pieces. The myocardial cells are isolated by stepwise enzymatic degradation with collagenase 0.05%, as described by^[35]. After repeated rounds of centrifugation and washing, the precipitated cells are resuspended in culture medium M199 with Earle's salt, 10% NCS, penicillin (75 U/mL), and streptomycin (75 U/mL) and pre-plated in a Petri dish for 90 minutes. The non-adherent cells are collected in the culture medium and plated in multidishes at 2.5*10^5 cells/well. The cultures are kept in a water-saturated CO2-incubator at 37° C. The cardiomyocyte cultures are used for analyses after 6-7 days.
Cardiomyocyte cultures are incubated for 48 hours in culture medium containing […] myo-[2-^3H]inositol to label the inositol phospholipids. On the day of analysis the medium is replaced by a buffer solution containing lithium and incubated at 37° C., as described by Meier et al.^[36]. After at least five minutes this buffer is replaced by the same volume of buffer containing test compound and incubated for exactly 20 minutes. The reaction is stopped by rapid replacement of the buffer by ice cold 4% v/v perchloric acid (PCA) and incubation for at least 20 minutes at 0° C. The PCA-extract is neutralised and the [^3H]inositol phosphates are separated by anion-exchange chromatography using Amprep™ columns containing 100 mg SAX Quaternary amine. The [^3H]inositol mono-phosphates are eluted and radioactivity in the fraction measured by liquid scintillation counting.
Before adding test substances to the cultures, the cells are depleted of glucose and oxygen by incubating them in a N2-atmosphere in glucose-free lithium-buffer for 10 minutes at 37° C. Control cells are incubated likewise only at normal atmospheric conditions and in a buffer containing glucose.

[3] = system: calcium-induced arrythmias; experiment: Calcium-induced arrhythmia model in mice; type: in vivo; settings: mouse, in vivo, iv
Procedure: The antiarrhythmic effects of compounds of this invention were tested in an in vivo model of calcium-induced arrythmias according to the model of Lynch et al.^[37]. […]. Commercial solutions of hypnorm and midazolam were diluted 1:1 in distilled water and one part diluted Hypnorm® is mixed with one part diluted midazolam.
The anaesthesia was induced by s.c. administration in a dose of 0.05-0.075 μl/10 gram mouse. An i.v cannula was inserted into the tail vein. The lead II ECG signal was recorded continuously by positioning of a stainless steel ECG electrodes on the right forelimb and on the left hind limb. The ground electrode was placed on the right hind limb. The signal was amplified (x 5.000-10.000) and filtered (0.1-150 Hz) via a Hugo Sachs Electronic model 689 ECG module. The analogue signal was digitised via a 12 bit data acquisition board (Data Translation model DT321) and sampled at 1000 Hz using the Notocord HEM 3.1 software for Windows NT. After a 10-min equilibration period, the test sample of drug was injected into the tail vein. Mice pre-treated with vehicle were tested as a measure of the control level in untreated animals. The injection volume was 100 μl in all experiments. Infusion of CaCl2 (30 mg/ml, 0.1 ml/min≈100 mg/kg/min (calciumchlorid-2-hydrat, Riedel-de Häen, Germany)) was started 3 min after i.v. administration of drug or vehicle. The time lag to onset of 2nd degree AV-block was determined as the time from the start of CaCl2 infusion until the first arrhythmic event occured. An event of 2nd degree AV-block was defined as intermittent failure of the AV conduction characterised by a P-wave without the concomitant QRS complex.
Responses were expressed relative to the time until 2nd degree AV-block occurred in vehicle treated mice.

[4] = system: isolated perfused rabbit hearts; experiment: Isolated perfused rabbit hearts (Langendorff), APD90 dispersion

In the case of “Ac-D-Tyr-D-Pro-D-4Hyp-Gly-D-Ala-Gly-NH2 [Compound 2]”, the “time of stimulation until steady-state level of Gj” value [1] is reported as “about 400 seconds”, the “effect on noradrenaline (300 nM) induced increase in phospho-inositol turnover” value [2] is reported as “no further effect” and the In vivo activity [3] is reported as “+++ (key: +++: >60% increase in time until arrhythmia; ++: 30-50% increase in time until arrhythmia; +: 15-29% increase in time until arrhythmia; (+): ≦15% increase in time until arrythmia)”. For the same substance, the “increase in APD90 dispersion during hypokalemic, acute myocardial ischemia” value [4] was “prevented”.
